Laboratory results: patent publication US9193714B2, “Fluorinated estrogen receptor modulators and uses thereof” (priority 2011, dated 2015)
Like-named read-outs stand apart in the source and are kept apart here. One block for each molecule: values may come before it.

Experiments:
[1] = tested on: MCF-7 cells; assay: Breast Cancer Cell Viability Assay (MCF7 Viability Assay); assay type: cell-based; conditions: for IC50: Homo sapiens, MCF7, 120 h, read-out: MCF7 Viability Assay IC50
Protocol: MCF-7 cells were adjusted to a concentration of 20,000 cells per mL in RPMI containing 10% FBS and 20 mM HEPES. 16 microliters of the cell suspension (320 cells) was added to each well of a 384 well plate, and the cells were incubated overnight to allow the cells to adhere. The following day an eleven point, serial semilog dilution of each compound was added to the cells in 16 μL at a final concentration ranging from 0.3-0.000003 μM. After 5 days' compound exposure, 16 μL of CellTiter-GLo (Promega, Madison Wis.) was added to the cells the relative luminescence units (RLUs) of each well was determined. CellTiter-Glo added to 32 μL of medium without cells was used to obtain a background value. The Percent viability of each sample was determined as follows: (RLU sample-RLU background/RLU untreated cells-RLU background)×100=% viability.

[2] = target: T1, ER-α (Homo sapiens, UniProt P03372); assay: Breast Cancer Cell ER-α in Cell Western Assay (SP1); assay type: cell-based; conditions: MCF7, read-out: ER In-Cell Western Assay (SP1); Max Response
T1 construct: endogenous in cells; host or cells: MCF-7
T1 sequence (P03372 whole entry): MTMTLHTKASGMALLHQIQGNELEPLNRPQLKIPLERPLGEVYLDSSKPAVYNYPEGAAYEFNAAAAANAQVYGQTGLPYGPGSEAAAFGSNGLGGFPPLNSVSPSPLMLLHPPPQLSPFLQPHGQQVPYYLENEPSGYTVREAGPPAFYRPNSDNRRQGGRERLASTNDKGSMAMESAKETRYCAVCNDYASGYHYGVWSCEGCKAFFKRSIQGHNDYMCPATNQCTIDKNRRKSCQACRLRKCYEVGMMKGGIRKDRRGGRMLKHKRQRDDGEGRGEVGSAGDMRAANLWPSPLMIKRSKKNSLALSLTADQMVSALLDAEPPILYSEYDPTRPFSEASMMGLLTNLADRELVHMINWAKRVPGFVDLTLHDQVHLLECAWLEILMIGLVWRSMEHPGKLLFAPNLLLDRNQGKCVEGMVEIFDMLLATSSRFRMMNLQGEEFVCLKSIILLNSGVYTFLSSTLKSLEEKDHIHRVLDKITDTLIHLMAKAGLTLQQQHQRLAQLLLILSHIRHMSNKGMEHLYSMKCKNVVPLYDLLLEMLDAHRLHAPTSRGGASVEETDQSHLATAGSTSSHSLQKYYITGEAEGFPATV
Protocol: MCF-7 cells were adjusted to a concentration of 200,000 cells per mL in RPMI containing 10% charcoal-stripped FBS and 20 mM HEPES. 16 microliters of the cell suspension (3200 cells) was added to each well of a poly-D-lysine 384 well plate, and the cells were incubated overnight to allow the cells to adhere. The following day an eleven point, serial semilog dilution of each compound was added to the cells in 16 μL at a final concentration ranging from 0.3-0.000003 μM. At 4 or 24 hr post compound addition, the cells were fixed (10% formalin in PBS) for 20 minutes. Cells were permeablized in PBS 0.1% Triton and blocked with LICOR blocking buffer (50 μl/well, 90′). The wells were then incubated overnight at 4° C. with SP1 rabbit monoclonal Ab (Thermo Scientific) diluted 1:1000 in LICOR blocking buffer/0.1% Tween-20. Wells which were treated with blocking buffer with Tween but no antibody were used as a background control. Wells were washed with 0.1% Tween-20/PBS and then incubated in goat anti-rabbit IRDye™ 800 CW (LICOR Inc.; 1:1000) and DRAQ5 DNA dye (1:2000 for 2 mM stock) diluted in LICOR blocking buffer containing 0.1% Tween-20 and 0.01% SDS for 60 minutes. Cells were washed (50 μl/well, 5′ each) in 0.1% Tween-20/PBS. Plates were scanned on a LICOR Odyssey infrared imaging system. Integrated intensities in the 800 nm channel and 700 nm channel were measured to determine levels of ER and DNA respectively. Percent ER levels were determined as follows: (Integrated intensity 800 nm sample/integrated intensity 700 nm sample)/(Integrated intensity 800 nm untreated cells/integrated intensity 700 nm untreated cells)×100=% ER levels.

[3] = MCF-7 cells, 5 days' compound exposure, CellTiter-Glo

SMILES: CC1=C(c2ccc(F)c(O)c2)C(c2ccc(OCCN3CC[C@@H](CF)C3)cc2)Oc2ccc(O)cc21 (stereo partly drawn) [Example 8, 3-(4-Fluoro-3-hydroxyphenyl)-2-(4-(2-((R)-3-(fluoromethyl)pyrrolidin-1-yl)ethoxy)phenyl)-4-methyl-2H-chromen-6-ol]
- IC50 [1, 3]: > 1 nM
- MCF7 Viability Assay Max Response [1, 3]: ++ (a single % value ≧ 50%)
- Emax [2]: > 85%

- IC50 [1]: < 1 nM
- Emax [2]: > 85%
SMILES: CC1=C(c2cccc(O)c2)C(c2ccc(OCCN3CC(CF)C3)cc2)Oc2ccc(O)cc21 (stereo not shown) [Example 1, 2-(4-(2-(3-(Fluoromethyl)azetidin-1-yl)ethoxy)phenyl)-3-(3-hydroxyphenyl)-4-methyl-2H-chromen-6-ol]
- MCF7 Viability Assay Max Response [1, 3]: ++ (a single % value ≧ 50%)

SMILES: CC1=C(c2cc(O)cc(F)c2)C(c2ccc(OC[C@H](C)N3CC[C@@H](CF)C3)cc2)Oc2ccc(O)cc21 (stereo partly drawn) [Example 12, 3-(3-Fluoro-5-hydroxyphenyl)-2-(4-((S)-2-((R)-3-(fluoromethyl)pyrrolidin-1-yl)propoxy)phenyl)-4-methyl-2H-chromen-6-ol]
- IC50 [1, 3]: < 1 nM
- MCF7 Viability Assay Max Response [1, 3]: ++ (a single % value ≧ 50%)
- Emax [2]: > 85%

SMILES: CC1=C(c2ccc(F)cc2)C(c2ccc(OCCN3CC[C@@H](CF)C3)cc2)Oc2ccc(O)cc21 (stereo partly drawn) [Example 26, 2-(4-(2-((R)-3-(Fluoromethyl)pyrrolidin-1-yl)ethoxy)phenyl)-3-(4-fluorophenyl)-4-methyl-2H-chromen-6-ol]
- IC50 [1, 3]: > 1 nM
- MCF7 Viability Assay Max Response [1, 3]: ++ (a single % value ≧ 50%)
- Emax [2]: > 85%

- IC50 [1]: < 1 nM
- Emax [2]: > 85%
SMILES: CC1=C(c2cccc(O)c2)C(c2ccc(OCCN3CC[C@@H](CF)C3)cc2)Oc2ccc(O)cc21 (stereo partly drawn) [Example 2, 2-(4-(2-((R)-3-(Fluoromethyl)pyrrolidin-1-yl)ethoxy)phenyl)-3-(3-hydroxyphenyl)-4-methyl-2H-chromen-6-ol]
- MCF7 Viability Assay Max Response [1, 3]: ++ (a single % value ≧ 50%)

SMILES: CC1=C(c2cc(O)c(F)c(F)c2)C(c2ccc(OCCN3CC[C@@H](CF)C3)cc2)Oc2ccc(O)cc21 (stereo partly drawn) [Example 6, 3-(3,4-Difluoro-5-hydroxyphenyl)-2-(4-(2-((R)-3-(fluoromethyl)pyrrolidin-1-yl)ethoxy)phenyl)-4-methyl-2H-chromen-6-ol]
- IC50 [1, 3]: < 1 nM
- MCF7 Viability Assay Max Response [1, 3]: ++ (a single % value ≧ 50%)
- Emax [2]: > 85%

SMILES: CC1=C(c2ccc(O)c(F)c2)C(c2ccc(OCCN3CC[C@@H](CF)C3)cc2)Oc2ccc(O)cc21 (stereo partly drawn) [Example 5, 3-(3-Fluoro-4-hydroxyphenyl)-2-(4-(2-((R)-3-(fluoromethyl)pyrrolidin-1-yl)ethoxy)phenyl)-4-methyl-2H-chromen-6-ol]
- IC50 [1, 3]: < 1 nM
- MCF7 Viability Assay Max Response [1, 3]: ++ (a single % value ≧ 50%)
- Emax [2]: > 85%

SMILES: CC1=C(c2ccc(Cl)cc2)C(c2ccc(OC[C@H](C)N3CC[C@@H](CF)C3)cc2)Oc2ccc(O)cc21 (stereo partly drawn) [Example 15, 3-(4-Chlorophenyl)-2-(4-((S)-2-((R)-3-(fluoromethyl)pyrrolidin-1-yl)propoxy)phenyl)-4-methyl-2H-chromen-6-ol]
- IC50 [1, 3]: > 1 nM
- MCF7 Viability Assay Max Response [1, 3]: ++ (a single % value ≧ 50%)
- Emax [2]: > 85%

SMILES: CC1=C(c2cc(O)ccc2F)C(c2ccc(OCCN3CC[C@@H](CF)C3)cc2)Oc2ccc(O)cc21 (stereo partly drawn) [Example 7, 3-(2-Fluoro-5-hydroxyphenyl)-2-(4-(2-((R)-3-(fluoromethyl)pyrrolidin-1-yl)ethoxy)phenyl)-4-methyl-2H-chromen-6-ol]
- IC50 [1, 3]: < 1 nM
- MCF7 Viability Assay Max Response [1, 3]: ++ (a single % value ≧ 50%)
- Emax [2]: > 85%

SMILES: CC1=C(c2ccc(O)c(F)c2)C(c2ccc(OC[C@H](C)N3CC[C@@H](CF)C3)cc2)Oc2ccc(O)cc21 (stereo partly drawn) [Example 13, 3-(3-Fluoro-4-hydroxyphenyl)-2-(4-((S)-2-((R)-3-(fluoromethyl)pyrrolidin-1-yl)propoxy)phenyl)-4-methyl-2H-chromen-6-ol]
- IC50 [1, 3]: < 1 nM
- MCF7 Viability Assay Max Response [1, 3]: ++ (a single % value ≧ 50%)
- Emax [2]: > 85%

SMILES: CC1=C(c2cc(O)c(F)c(F)c2)C(c2ccc(OC[C@H](C)N3CC[C@@H](CF)C3)cc2)Oc2ccc(O)cc21 (stereo partly drawn) [Example 9, 3-(3,4-Difluoro-5-hydroxyphenyl)-2-(4-((S)-2-((R)-3-(fluoromethyl)pyrrolidin-1-yl)propoxy)phenyl)-4-methyl-2H-chromen-6-ol]
- IC50 [1, 3]: < 1 nM
- MCF7 Viability Assay Max Response [1, 3]: ++ (a single % value ≧ 50%)
- Emax [2]: > 85%

SMILES: CC1=C(c2cccc(O)c2)C(c2ccc(OCCN3CCC(F)CC3)cc2)Oc2ccc(O)cc21 (stereo not shown) [Example 17, 2-(4-(2-(4-Fluoropiperidin-1-yl)ethoxy)phenyl)-3-(3-hydroxyphenyl)-4-methyl-2H-chromen-6-ol]
- IC50 [1, 3]: < 1 nM
- MCF7 Viability Assay Max Response [1, 3]: ++ (a single % value ≧ 50%)
- Emax [2]: 60 to 85%

SMILES: CC1=C(c2ccc(Cl)cc2)C(c2ccc(OCCN3CC[C@@H](CF)C3)cc2)Oc2ccc(O)cc21 (stereo partly drawn) [Example 4, 3-(4-Chlorophenyl)-2-(4-(2-((R)-3-(fluoromethyl)pyrrolidin-1-yl)ethoxy)phenyl)-4-methyl-2H-chromen-6-ol]
- IC50 [1, 3]: > 1 nM
- MCF7 Viability Assay Max Response [1, 3]: ++ (a single % value ≧ 50%)
- Emax [2]: > 85%

- IC50 [1]: < 1 nM
- Emax [2]: > 85%
SMILES: CC1=C(c2cccc(O)c2)[C@H](c2ccc(OCCN3CC[C@@H](CF)C3)cc2)Oc2ccc(O)cc21 (single isomer, unassigned) [Example 2b]
- MCF7 Viability Assay Max Response [1, 3]: ++ (a single % value ≧ 50%)

- Emax [2]: 60 to 85%
SMILES: CC1=C(c2cccc(O)c2)C(c2ccc(OCCN3CCC(CF)CC3)cc2)Oc2ccc(O)cc21 (stereo not shown) [Example 19, 2-(4-(2-(4-(Fluoromethyl)piperidin-1-yl)ethoxy)phenyl)-3-(3-hydroxyphenyl)-4-methyl-2H-chromen-6-ol]

- IC50 [1]: < 1 nM
- Emax [2]: > 85%
SMILES: CC1=C(c2cccc(O)c2)C(c2ccc(OCCN3CC[C@@H](C(F)F)C3)cc2)Oc2ccc(O)cc21 (stereo partly drawn) [Example 21, (R)-2-(4-(2-(3-(Difluoromethyl)pyrrolidin-1-yl)ethoxy)phenyl)-3-(3-hydroxyphenyl)-4-methyl-2H-chromen-6-ol]
- MCF7 Viability Assay Max Response [1, 3]: ++ (a single % value ≧ 50%)

SMILES: CC1=C(c2ccc(C#N)cc2)C(c2ccc(OC[C@H](C)N3CC[C@@H](CF)C3)cc2)Oc2ccc(O)cc21 (stereo partly shown) [Example 16]
- IC50 [1, 3]: > 1 nM
- MCF7 Viability Assay Max Response [1, 3]: ++ (a single % value ≧ 50%)
- Emax [2]: > 85%

- IC50 [1]: < 1 nM
- Emax [2]: > 85%
SMILES: CC1=C(c2cccc(O)c2)C(c2ccc(OC[C@H](C)N3CC[C@@H](CF)C3)cc2)Oc2ccc(O)cc21 (stereo partly drawn) [Example 3, 2-(4-((S)-2-((R)-3-(Fluoromethyl)pyrrolidin-1-yl)propoxy)phenyl)-3-(3-hydroxyphenyl)-4-methyl-2H-chromen-6-ol]
- MCF7 Viability Assay Max Response [1, 3]: ++ (a single % value ≧ 50%)

SMILES: CCN(CCCF)CCOc1ccc(C2Oc3ccc(O)cc3C(C)=C2c2cccc(O)c2)cc1 (stereo not shown) [Example 24, 2-(4-(2-(Ethyl(3-fluoropropyl)amino)ethoxy)phenyl)-3-(3-hydroxyphenyl)-4-methyl-2H-chromen-6-ol]
- IC50 [1, 3]: < 1 nM
- MCF7 Viability Assay Max Response [1, 3]: ++ (a single % value ≧ 50%)
- Emax [2]: < 60%

SMILES: CCN(CCF)CCOc1ccc(C2Oc3ccc(O)cc3C(C)=C2c2cccc(O)c2)cc1 (stereo not shown) [Example 23, 2-(4-(2-(Ethyl(2-fluoroethyl)amino)ethoxy)phenyl)-3-(3-hydroxyphenyl)-4-methyl-2H-chromen-6-ol]
- IC50 [1, 3]: > 1 nM
- MCF7 Viability Assay Max Response [1, 3]: ++ (a single % value ≧ 50%)
- Emax [2]: < 60%
